Results from ChEMBL document CHEMBL3885881, “DrugMatrix”.

Species: Rattus norvegicus
Experiment: DrugMatrix - Regimen: Daily Repeat
Format: toxicity, organism-based, Sprague-Dawley
Design: regimen Daily Repeat, gender Male, age 6-8 weeks
Settings: in vivo, po, route oral GAVAGE, vehicle 100 % WATER; for ABSOLUTE BASOPHIL / ABSOLUTE EOSINOPHIL / ABSOLUTE LYMPHOCYTE / ABSOLUTE MONOCYTE / ABSOLUTE SEGMENTED NEUTROPHIL / BASOPHIL / EOSINOPHIL / ERYTHROCYTE COUNT / HEMATOCRIT / HEMOGLOBIN / LEUKOCYTE COUNT / LYMPHOCYTE / MEAN CORPUSCULAR HEMOGLOBIN / MEAN CORPUSCULAR HEMOGLOBIN CONCENTRATION / MEAN CORPUSCULAR VOLUME / MONOCYTE / NEUTROPHIL / NUCLEATED RED BLOOD CELLS / PLATELET COUNT: tissue Blood; for ALANINE AMINOTRANSFERASE / ALBUMIN / ALKALINE PHOSPHATASE / ASPARTATE AMINOTRANSFERASE / BLOOD UREA NITROGEN / CARBON DIOXIDE / CHLORIDE / CHOLESTEROL / CREATINE PHOSPHOKINASE / CREATININE / GLUCOSE / LACTATE DEHYDROGENASE / LIPASE / PHOSPHORUS / POTASSIUM / SODIUM / TOTAL BILIRUBIN / TOTAL PROTEIN / URIC ACID: tissue Plasma
[1] = 0 mg/kg, 72 h, dose level Control, time 3 day
[2] = 0 mg/kg, 120 h, dose level Control, time 5 day
[3] = 45 mg/kg, 72 h, dose level Low, time 3 day
[4] = 45 mg/kg, 120 h, dose level Low, time 5 day

## CCOC(N)=O
[1]
  ABSOLUTE BASOPHIL: 0 CELLS/uL
  ABSOLUTE EOSINOPHIL: 123.17 CELLS/uL
  ABSOLUTE LYMPHOCYTE: 12677.83 CELLS/uL
  ABSOLUTE MONOCYTE: 66.17 CELLS/uL
  ABSOLUTE SEGMENTED NEUTROPHIL: 1149.5 CELLS/uL
  BASOPHIL: 0%
  EOSINOPHIL: 0.83%
  ERYTHROCYTE COUNT: 5.26 x10E6/uL
  HEMATOCRIT: 33.07%
  HEMOGLOBIN: 13.43 G/DL
  LEUKOCYTE COUNT: 14.02 x10E3/uL
  LYMPHOCYTE: 90.17%
  MEAN CORPUSCULAR HEMOGLOBIN: 25.62 pg
  MEAN CORPUSCULAR HEMOGLOBIN CONCENTRATION: 40.65 G/DL
  MEAN CORPUSCULAR VOLUME: 63 fL
  MONOCYTE: 0.5%
  NEUTROPHIL: 8.5%
  NUCLEATED RED BLOOD CELLS: 0.17 /100WBC
  PLATELET COUNT: 1142.83 x10E3/uL
  ALANINE AMINOTRANSFERASE: 45.17 u/L
  ALBUMIN: 3.78 G/DL
  ALKALINE PHOSPHATASE: 340.17 u/L
  ASPARTATE AMINOTRANSFERASE: 77.33 u/L
  BLOOD UREA NITROGEN: 14.67 mg/dL
  CARBON DIOXIDE: 28.67 mmol/L
  CHLORIDE: 101.17 MEQ/L
  CHOLESTEROL: 77.67 mg/dL
  CREATINE PHOSPHOKINASE: 263.67 u/L
  CREATININE: 0.15 mg/dL
  GLUCOSE: 169.33 mg/dL
  LACTATE DEHYDROGENASE: 230 u/L
  LIPASE: 9.67 u/L
  PHOSPHORUS: 11.8 mg/dL
  POTASSIUM: 5.91 MEQ/L
  SODIUM: 142.88 MEQ/L
  TOTAL BILIRUBIN: 0.22 mg/dL
  TOTAL PROTEIN: 5.7 G/DL
  URIC ACID: 1.35 mg/dL
[2]
  ABSOLUTE BASOPHIL: 0 CELLS/uL
  ABSOLUTE EOSINOPHIL: 125 CELLS/uL
  ABSOLUTE LYMPHOCYTE: 13809 CELLS/uL
  ABSOLUTE MONOCYTE: 351 CELLS/uL
  ABSOLUTE SEGMENTED NEUTROPHIL: 1581.67 CELLS/uL
  BASOPHIL: 0%
  EOSINOPHIL: 0.67%
  ERYTHROCYTE COUNT: 5.53 x10E6/uL
  HEMATOCRIT: 34.83%
  HEMOGLOBIN: 13.9 G/DL
  LEUKOCYTE COUNT: 15.87 x10E3/uL
  LYMPHOCYTE: 87.5%
  MEAN CORPUSCULAR HEMOGLOBIN: 25.25 pg
  MEAN CORPUSCULAR HEMOGLOBIN CONCENTRATION: 40.08 G/DL
  MEAN CORPUSCULAR VOLUME: 63.05 fL
  MONOCYTE: 2.17%
  NEUTROPHIL: 9.67%
  NUCLEATED RED BLOOD CELLS: 0 /100WBC
  PLATELET COUNT: 1044 x10E3/uL
  ALANINE AMINOTRANSFERASE: 50.67 u/L
  ALBUMIN: 4.33 G/DL
  ALKALINE PHOSPHATASE: 395 u/L
  ASPARTATE AMINOTRANSFERASE: 86 u/L
  BLOOD UREA NITROGEN: 15.33 mg/dL
  CARBON DIOXIDE: 29.33 mmol/L
  CHLORIDE: 101.5 MEQ/L
  CHOLESTEROL: 71.33 mg/dL
  CREATINE PHOSPHOKINASE: 323.17 u/L
  CREATININE: 0.18 mg/dL
  GLUCOSE: 145.67 mg/dL
  LACTATE DEHYDROGENASE: 389.5 u/L
  LIPASE: 9.83 u/L
  PHOSPHORUS: 11.35 mg/dL
  POTASSIUM: 6.39 MEQ/L
  SODIUM: 142.77 MEQ/L
  TOTAL BILIRUBIN: 0.18 mg/dL
  TOTAL PROTEIN: 6.1 G/DL
  URIC ACID: 1.52 mg/dL
[3]
  ABSOLUTE BASOPHIL: 0 CELLS/uL
  ABSOLUTE EOSINOPHIL: 0 CELLS/uL
  ABSOLUTE LYMPHOCYTE: 12480 CELLS/uL
  ABSOLUTE MONOCYTE: 82.67 CELLS/uL
  ABSOLUTE SEGMENTED NEUTROPHIL: 1104 CELLS/uL
  BASOPHIL: 0%
  EOSINOPHIL: 0%
  ERYTHROCYTE COUNT: 5.25 x10E6/uL
  HEMATOCRIT: 34.27%
  HEMOGLOBIN: 13.87 G/DL
  LEUKOCYTE COUNT: 13.67 x10E3/uL
  LYMPHOCYTE: 91.33%
  MEAN CORPUSCULAR HEMOGLOBIN: 26.43 pg
  MEAN CORPUSCULAR HEMOGLOBIN CONCENTRATION: 40.47 G/DL
  MEAN CORPUSCULAR VOLUME: 65.23 fL
  MONOCYTE: 0.67%
  NEUTROPHIL: 8%
  NUCLEATED RED BLOOD CELLS: 0.33 /100WBC
  PLATELET COUNT: 1224 x10E3/uL
  ALANINE AMINOTRANSFERASE: 48.67 u/L
  ALBUMIN: 3.73 G/DL
  ALKALINE PHOSPHATASE: 327 u/L
  ASPARTATE AMINOTRANSFERASE: 72 u/L
  BLOOD UREA NITROGEN: 14 mg/dL
  CARBON DIOXIDE: 31.33 mmol/L
  CHLORIDE: 100.67 MEQ/L
  CHOLESTEROL: 75.67 mg/dL
  CREATINE PHOSPHOKINASE: 181.67 u/L
  CREATININE: 0.14 mg/dL
  GLUCOSE: 154 mg/dL
  LACTATE DEHYDROGENASE: 151.67 u/L
  LIPASE: 10 u/L
  PHOSPHORUS: 12.13 mg/dL
  POTASSIUM: 7.17 MEQ/L
  SODIUM: 142.87 MEQ/L
  TOTAL BILIRUBIN: 0.17 mg/dL
  TOTAL PROTEIN: 5.53 G/DL
  URIC ACID: 1.63 mg/dL
[4]
  ABSOLUTE BASOPHIL: 0 CELLS/uL
  ABSOLUTE EOSINOPHIL: 0 CELLS/uL
  ABSOLUTE LYMPHOCYTE: 10640.67 CELLS/uL
  ABSOLUTE MONOCYTE: 292.67 CELLS/uL
  ABSOLUTE SEGMENTED NEUTROPHIL: 1133.33 CELLS/uL
  BASOPHIL: 0%
  EOSINOPHIL: 0%
  ERYTHROCYTE COUNT: 5.57 x10E6/uL
  HEMATOCRIT: 35.5%
  HEMOGLOBIN: 14.37 G/DL
  LEUKOCYTE COUNT: 12.07 x10E3/uL
  LYMPHOCYTE: 88.67%
  MEAN CORPUSCULAR HEMOGLOBIN: 25.77 pg
  MEAN CORPUSCULAR HEMOGLOBIN CONCENTRATION: 40.47 G/DL
  MEAN CORPUSCULAR VOLUME: 63.8 fL
  MONOCYTE: 2.33%
  NEUTROPHIL: 9%
  NUCLEATED RED BLOOD CELLS: 0 /100WBC
  PLATELET COUNT: 1349.67 x10E3/uL
  ALANINE AMINOTRANSFERASE: 45 u/L
  ALBUMIN: 4.53 G/DL
  ALKALINE PHOSPHATASE: 393.33 u/L
  ASPARTATE AMINOTRANSFERASE: 72 u/L
  BLOOD UREA NITROGEN: 14.67 mg/dL
  CARBON DIOXIDE: 33 mmol/L
  CHLORIDE: 101 MEQ/L
  CHOLESTEROL: 75 mg/dL
  CREATINE PHOSPHOKINASE: 138.67 u/L
  CREATININE: 0.19 mg/dL
  GLUCOSE: 156.33 mg/dL
  LACTATE DEHYDROGENASE: 85.67 u/L
  LIPASE: 10 u/L
  PHOSPHORUS: 11.27 mg/dL
  POTASSIUM: 6.72 MEQ/L
  SODIUM: 144.8 MEQ/L
  TOTAL BILIRUBIN: 0.23 mg/dL
  TOTAL PROTEIN: 6.3 G/DL
  URIC ACID: 1.6 mg/dL
